In brackets after ≈: the same amount, converted by molar mass. Activity calls are given as the source filed them. The calls are words filed in the database; no cut-off is given here.
Key:
Staphylococcus aureus [1] = assay: Ratio MBC to MIC against Staphylococcus aureus ATCC 6538P measured after 24 hrs; assay type: functional
Staphylococcus aureus [2] = assay: Antibacterial activity against Staphylococcus aureus ATCC 6538P incubated for 24 hrs by broth microdilution method; assay type: functional
Staphylococcus aureus [3] = assay: Ratio MBC to MIC methicillin resistant Staphylococcus aureus ATCC 33591 measured after 24 hrs; assay type: functional
Escherichia coli [4] = assay: Ratio of MBC to MIC against Escherichia coli ATCC 8739 measured after 24 hrs; assay type: functional
[5] = Hemolytic activity in rabbit RBC assessed as hemolysis rate at 10 times MIC incubated for 3 hrs by ultraviolet spectrophotometry analysis relative to control; assay type: toxicity, cell-based, Oryctolagus cuniculus, Erythrocyte; conditions: rabbit red blood cells (erythrocytes), read-out: Activity
Escherichia coli [6] = assay: Antibacterial activity against Escherichia coli ATCC 8739 incubated for 24 hrs by broth microdilution method; assay type: functional
Staphylococcus aureus [7] = assay: Antibacterial activity against methicillin resistant Staphylococcus aureus ATCC 33591 incubated for 24 hrs by broth dilution method; assay type: functional
Staphylococcus aureus [8] = assay: Potency index, ratio of norfloxacin MIC to test compound MIC for antibacterial activity against methicillin resistant Staphylococcus aureus ATCC 33591 incubated for 24 hrs by broth dilution method; assay type: functional
Staphylococcus aureus [9] = assay: Bactericidal activity against methicillin resistant Staphylococcus aureus ATCC 33591 at 1 to 4 times MIC incubated for 24 hrs by time kill assay; assay type: functional, organism-based
Staphylococcus aureus [10] = assay: Induction of resistance development in methicillin resistant Staphylococcus aureus ATCC 33591 assessed as fold increase in MIC incubated for 24 hrs and measured at 10th generation relative to first generation; assay type: functional
Staphylococcus aureus [11] = assay: Anti-biofilm activity against methicillin resistant Staphylococcus aureus ATCC 33591 assessed as biofilm eradication at MIC incubated for 24 hrs by crystal violet staining based assay relative to control; assay type: functional
[12] = Hemolytic activity in rabbit RBC assessed as hemolysis rate at 4 times MIC incubated for 3 hrs by ultraviolet spectrophotometry analysis relative to control; assay type: toxicity, cell-based, Oryctolagus cuniculus, Erythrocyte; conditions: rabbit red blood cells (erythrocytes), read-out: Activity
Staphylococcus aureus [13] = assay: Inhibition of biofilm formation in methicillin resistant Staphylococcus aureus ATCC 33591 at 0.5 times MIC incubated for 24 hrs by crystal violet staining based assay relative to control; assay type: functional
Staphylococcus aureus [14] = assay: Bactericidal activity against methicillin resistant Staphylococcus aureus ATCC 33591 at 2 to 4 times MIC measured after 2 hrs by time kill assay; assay type: functional
Escherichia coli [15] = assay: Noncompetitive inhibition of Escherichia coli ATCC 8739 UPPS using varying concentrations of farnesyl pyrophosphate as substrate assessed as decrease in Vmax with constant Km at 0 to 64 microg/mL incubated for 30 mins by Lineweaver-Burk plot analysis; conditions: dose 0-64 µg/ml
[16] = Hemolytic activity in rabbit RBC assessed as hemolysis rate at 6 times MIC incubated for 3 hrs by ultraviolet spectrophotometry analysis relative to control; assay type: toxicity, cell-based, Oryctolagus cuniculus, Erythrocyte; conditions: rabbit red blood cells (erythrocytes), read-out: Activity
Staphylococcus aureus [17] = assay: Bactericidal activity against methicillin resistant Staphylococcus aureus ATCC 33591 at 1 times MIC measured after 4 hrs by time kill assay; assay type: functional
Staphylococcus aureus [18] = assay: Inhibition of biofilm formation in methicillin resistant Staphylococcus aureus ATCC 33591 at 0.25 times MIC incubated for 24 hrs by crystal violet staining based assay relative to control; assay type: functional
Escherichia coli [19] = assay: (§1) Inhibition of Escherichia coli ATCC 8739 UPPS using farnesyl pyrophosphate and isopentenyl pyrophosphate as a substrates preincubated for 30 min followed by EcPPA addition and measured after 30 min by malachite green dye based absorbance analysis; conditions: time 60.0 min
[20] = as §1
Staphylococcus aureus [21] = assay: Anti-biofilm activity against methicillin resistant Staphylococcus aureus ATCC 33591 assessed as biofilm eradication incubated for 24 hrs by crystal violet staining based assay; assay type: functional, organism-based
[22] = Hemolytic activity in rabbit RBC assessed as hemolysis rate at 2 times MIC incubated for 3 hrs by ultraviolet spectrophotometry analysis relative to control; assay type: toxicity, cell-based, Oryctolagus cuniculus, Erythrocyte; conditions: rabbit red blood cells (erythrocytes), read-out: Activity
[23] = Hemolytic activity in rabbit RBC assessed as hemolysis rate at 8 times MIC incubated for 3 hrs by ultraviolet spectrophotometry analysis relative to control; assay type: toxicity, cell-based, Oryctolagus cuniculus, Erythrocyte; conditions: rabbit red blood cells (erythrocytes), read-out: Activity

| Structure (SMILES) | Ratio (Staphylococcus aureus [1]) | MIC (Staphylococcus aureus [2]) [µg/mL] | Ratio (Staphylococcus aureus [3]) | Ratio (Escherichia coli [4]) | hemolysis at 3 h, 10 x MIC [5] [%] | MIC (Escherichia coli [6]) [µg/mL] | MIC (Staphylococcus aureus [7]) [µg/mL] | Ratio (Staphylococcus aureus [8]) | other results |
| --- | --- | --- | --- | --- | --- | --- | --- | --- | --- |
| C/C(=N\NC(=N)N)c1sc(N/N=C/c2cccc(F)c2F)nc1C | 2 | 16 (≈ 45.5 µM) | 1 | 2 | < 5 | 64 (≈ 182 µM) | 16 (≈ 45.5 µM) |  |  |
| C/C(=N\NC(=N)N)c1sc(N/N=C/C=C/c2c(F)cccc2F)nc1C | 1 | 128 (≈ 339 µM) |  | 1 | < 5 | 32 (≈ 84.8 µM) | 32 (≈ 84.8 µM) |  |  |
| C/C(=N\NC(=N)N)c1sc(N/N=C/c2ccc(O)cc2)nc1C | 2 | 32 (≈ 96.6 µM) | >1 | 1 | < 5 | 64 (≈ 193 µM) | 128 (≈ 386 µM) |  |  |
| C/C(=N\NC(=N)N)c1sc(N/N=C/c2ccc(-c3ccc(F)cc3)cc2)nc1C | 1 | 4 (≈ 9.77 µM) |  | 4 | < 5 | 16 (≈ 39.1 µM) | 4 (≈ 9.77 µM) | 16 |  |
| C/C(=N\NC(=N)N)c1sc(N/N=C/c2cccc(O)c2)nc1C | 2 | 8 (≈ 24.1 µM) | 1 | 1 | < 5 | 32 (≈ 96.6 µM) | 32 (≈ 96.6 µM) |  |  |
| COc1ccc(-c2ccc(/C=N/Nc3nc(C)c(/C(C)=N/NC(=N)N)s3)cc2)cc1 | >1 | 32 (≈ 75.9 µM) | 1 | >1 | < 5 | 128 (≈ 304 µM) | 32 (≈ 75.9 µM) |  |  |
| C/C(=N\NC(=N)N)c1sc(N/N=C/c2cc(F)ccc2F)nc1C | 1 | 8 (≈ 22.8 µM) |  | 1 | < 5 | 16 (≈ 45.5 µM) | 8 (≈ 22.8 µM) | 8 |  |
| CCn1cc(C(=O)O)c(=O)c2cc(F)c(N3CCNCC3)cc21 [NORFLOXACIN] | 1 | 0.25 (≈ 0.783 µM) | >2 | >8 |  | 0.12 (≈ 0.376 µM) | 64 (≈ 200 µM) |  | Activity (Staphylococcus aureus [9]): inactive; fold change (FC) (Staphylococcus aureus [10]): 4 |
| C/C(=N\NC(=N)N)c1sc(N/N=C/c2ccc(-n3cncn3)cc2)nc1C |  | > 128 |  |  | < 5 | > 128 | > 128 |  |  |
| C/C(=N\NC(=N)N)c1sc(N/N=C/c2ccccc2O)nc1C | 1 | 32 (≈ 96.6 µM) |  | 1 | < 5 | 64 (≈ 193 µM) | 64 (≈ 193 µM) |  |  |
| C/C(=N\NC(=N)N)c1sc(N/N=C/c2cc(O)cc(O)c2)nc1C | 1 | 32 (≈ 92.1 µM) |  | 1 | < 5 | 32 (≈ 92.1 µM) | 64 (≈ 184 µM) |  |  |
| C/C(=N\NC(=N)N)c1sc(N/N=C/c2ccccc2F)nc1C | 1 | 16 (≈ 48 µM) |  | 1 | < 5 | 16 (≈ 48 µM) | 8 (≈ 24 µM) | 8 |  |
| C/C(=N\NC(=N)N)c1sc(N/N=C/c2ccc(N3CCCC3)cc2)nc1C | 1 | 32 (≈ 83.2 µM) |  | 4 | < 5 | 32 (≈ 83.2 µM) | 32 (≈ 83.2 µM) |  |  |
| C/C(=N\NC(=N)N)c1sc(N/N=C/c2ccc(-c3ccc(C(F)(F)F)cc3)cc2)nc1C | 1 | 16 (≈ 34.8 µM) |  | 1 | < 5 | 8 (≈ 17.4 µM) | 8 (≈ 17.4 µM) | 8 |  |
| C/C(=N\NC(=N)N)c1sc(N/N=C/c2cncs2)nc1C | >2 | 64 (≈ 198 µM) | 2 | 2 | < 5 | 64 (≈ 198 µM) | 64 (≈ 198 µM) |  |  |
| C/C(=N\NC(=N)N)c1sc(N/N=C/c2ccc(-c3cccs3)s2)nc1C | 2 | 2 (≈ 4.96 µM) | 1 | 1 | 3.3 | 8 (≈ 19.8 µM) | 8 (≈ 19.8 µM) | 8 | Activity (Staphylococcus aureus [11]): 70%; hemolysis at 3 h, 4 x MIC [12]: 2.1%; inhibition (INH) (Staphylococcus aureus [13]): 59%; Activity (Staphylococcus aureus [14]): 100%; inhibition (Escherichia coli [15]): Dose-Dependent Effect; hemolysis at 3 h, 6 x MIC [16]: 1.7%; Activity (Staphylococcus aureus [17]): 100%; inhibition (INH) (Staphylococcus aureus [18]): 44%; inhibition (Escherichia coli [19]): Dose-Dependent Effect; IC50 [20]: 145 µM; Activity (Staphylococcus aureus [21]): Dose-Dependent Effect; fold change (FC) (Staphylococcus aureus [10]): 2; hemolysis at 3 h, 2 x MIC [22]: 2.6%; hemolysis at 3 h, 8 x MIC [23]: 1.3% |
